target: T1, GCS (Canis lupus familiaris, UniProt A0A8I3MXG6); test: GCS enzymatic assay (MDCK cell lysate, NBD-ceramide to glucosylceramide, LC/MS); type: biochemical, canine; settings: Table 2; class symbols A, B, C; the table does not say which of the assays; read-out: Data Range (IC50 values)
T1 construct: endogenous in cells; host or cells: MDCK (Madin-Darby canine kidney) cells, whole-cell lysate
T1 sequence (A0A8I3MXG6 1-394): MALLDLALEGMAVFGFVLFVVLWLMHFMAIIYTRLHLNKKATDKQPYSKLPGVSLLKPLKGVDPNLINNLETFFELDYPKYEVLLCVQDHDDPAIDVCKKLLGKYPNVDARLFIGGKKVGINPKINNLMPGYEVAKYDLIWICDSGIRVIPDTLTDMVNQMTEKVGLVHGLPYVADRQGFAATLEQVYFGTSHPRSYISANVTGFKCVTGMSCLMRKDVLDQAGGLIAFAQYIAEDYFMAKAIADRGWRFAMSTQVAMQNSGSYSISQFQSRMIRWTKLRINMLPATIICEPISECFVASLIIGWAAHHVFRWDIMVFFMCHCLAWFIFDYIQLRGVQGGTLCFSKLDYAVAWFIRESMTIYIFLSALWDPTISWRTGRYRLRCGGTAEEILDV
In short: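 IC50 or percent inhibition came from LC/MS/MS (ESI+, MRM) of NBD-ceramide and glucosylceramide, with tolbutamide as internal standard. The reaction used MDCK (canine) cell lysate as the enzyme source and was ended with acetonitrile. Mock wells received 0.1% DMSO.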

Row | Compound | IC50
1 | O=C(N[C@H](CN1CCCC1)[C@H](O)c1ccc(OC2CC2)c(Cl)c1)[C@@H]1CCN(c2ccc3ccccc3c2)C1 [Compound 67, (R)-N-((1R,2R)-1-(3-chloro-4-cyclopropoxyphenyl)-1-hydroxy-3-(pyrrolidin-1-yl)propan-2-yl)-1-(naphthalen-2-yl)pyrrolidine-3-carboxamide] | 1 to 30 nM
2 | O=C(N[C@H](CN1CCCC1)[C@H](O)c1cc(F)c2c(c1)OCCO2)[C@@H]1CCN(c2ccc3ccccc3n2)C1 [Compound 68, (R)-N-((1R,2R)-1-(8-fluoro-2,3-dihydrobenzo[b][1,4]dioxin-6-yl)-1-hydroxy-3-(pyrrolidin-1-yl)propan-2-yl)-1-(quinolin-2-yl)pyrrolidine-3-carboxamide] | 1 to 30 nM
3 | O=C(N[C@H](CN1CCCC1)[C@H](O)c1ccc(OC2CC2)c(F)c1)[C@@H]1CCN(c2ccc(F)cc2)C1 [Compound 69, (R)-N-((1R,2R)-1-(4-cyclopropoxy-3-fluorophenyl)-1-hydroxy-3-(pyrrolidin-1-yl)propan-2-yl)-1-(4-fluorophenyl)pyrrolidine-3-carboxamide] | 1 to 30 nM
4 | O=C(N[C@H](CN1CCCC1)[C@H](O)c1ccc2c(c1)OCCO2)[C@@H]1CCN(c2ccc3ccccc3c2)C1 [Compound 70, (R)-N-((1R,2R)-1-(2,3-dihydrobenzo[b][1,4]dioxin-6-yl)-1-hydroxy-3-(pyrrolidin-1-yl)propan-2-yl)-1-(naphthalen-2-yl)pyrrolidine-3-carboxamide] | 1 to 30 nM
5 | CC1(C)CCc2ccc(N3CC[C@@H](C(=O)N[C@H](CN4CCCC4)[C@H](O)c4ccc5c(c4)OCCO5)C3)cc2O1 [Compound 71, (R)-N-((1R,2R)-1-(2,3-dihydrobenzo[b][1,4]dioxin-6-yl)-1-hydroxy-3-(pyrrolidin-1-yl)propan-2-yl)-1-(2,2-dimethylchroman-7-yl)pyrrolidine-3-carboxamide] | 30 to 100 nM
6 | O=C(N[C@H](CN1CCCC1)[C@H](O)c1ccc2c(c1)OCCO2)[C@@H]1CCN(c2ccc3ccccc3n2)C1 [Compound 72, (R)-N-((1R,2R)-1-(2,3-dihydrobenzo[b][1,4]dioxin-6-yl)-1-hydroxy-3-(pyrrolidin-1-yl)propan-2-yl)-1-(quinolin-2-yl)pyrrolidine-3-carboxamide] | 1 to 30 nM
7 | O=C(N[C@H](CN1CCC1)[C@H](O)c1ccc(OC2CC2)c(Cl)c1)[C@@H]1CCN(c2ccc(Cl)cc2)C1 [Compound 73, (R)-N-((1R,2R)-3-(azetidin-1-yl)-1-(3-chloro-4-cyclopropoxyphenyl)-1-hydroxypropan-2-yl)-1-(4-chlorophenyl)pyrrolidine-3-carboxamide] | 1 to 30 nM
8 | O=C(N[C@H](CN1CCCC1)[C@H](O)c1ccc(OC2CC2)c(Cl)c1)[C@@H]1CCN(c2cccc(Oc3ccccn3)c2)C1 [Compound 75, (R)-N-((1R,2R)-1-(3-chloro-4-cyclopropoxyphenyl)-1-hydroxy-3-(pyrrolidin-1-yl)propan-2-yl)-1-(3-(pyridin-2-yloxy)phenyl)pyrrolidine-3-carboxamide] | 1 to 30 nM
9 | O=C(N[C@H](CN1CCCC1)[C@H](O)c1ccc2c(c1)OCCO2)[C@@H]1CCN(c2ccc3cc(Cl)sc3c2)C1 [Compound 76, (R)-1-(2-chlorobenzo[b]thiophen-6-yl)-N-((1R,2R)-1-(2,3-dihydrobenzo[b][1,4]dioxin-6-yl)-1-hydroxy-3-(pyrrolidin-1-yl)propan-2-yl)pyrrolidine-3-carboxamide] | 30 to 100 nM
10 | O=C(N[C@H](CN1CCC1)[C@H](O)c1ccc2c(c1)OCCO2)[C@@H]1CCN(c2ccc(Cl)cc2)C1 [Compound 78, (R)-N-((1R,2R)-3-(azetidin-1-yl)-1-(2,3-dihydrobenzo[b][1,4]dioxin-6-yl)-1-hydroxypropan-2-yl)-1-(4-chlorophenyl)pyrrolidine-3-carboxamide] | 1 to 30 nM
11 | O=C(N[C@H](CN1CCC1)[C@H](O)c1ccc2c(c1)OCCO2)[C@@H]1CCN(c2ccc3cc(F)ccc3c2)C1 [Compound 79, (R)-N-((1R,2R)-3-(azetidin-1-yl)-1-(2,3-dihydrobenzo[b][1,4]dioxin-6-yl)-1-hydroxypropan-2-yl)-1-(6-fluoronaphthalen-2-yl)pyrrolidine-3-carboxamide] | 1 to 30 nM

Continued, values first:

Row | IC50 | Compound
12 | 1 to 30 nM | O=C(N[C@H](CN1CCCC1)[C@H](O)c1ccc2c(c1)OCCO2)C1CCN(c2ccc3cc(Cl)sc3c2)C1 (stereo partly drawn) [Compound 76D, 1-(2-chlorobenzo[b]thiopen-6-yl)-N-((1R,2R)-1-(2,3-dihydrobenzo[b][1,4]dioxin-6-yl)-1-hydroxy-3-(pyrrolidin-1-yl)propan-2-yl)pyrrolidine-3-carboxamide]
13 | 1 to 30 nM | O=C(N[C@H](CN1CCCC1)[C@H](O)c1ccc2c(c1)OCCO2)[C@H]1CCN(c2ccc3cc(Cl)sc3c2)C1 [Compound 76E, (S)-1-(2-chlorobenzo[b]thiophen-6-yl)-N-((1R,2R)-1-(2,3-dihydrobenzo[b][1,4]dioxin-6-yl)-1-hydroxy-3-(pyrrolidin-1-yl)propan-2-yl)pyrrolidine-3-carboxamide]

same assay, conditions: Table 2; class symbols D, E, F, NA (not active); the table does not say which of the assays

Row | Compound | Data Range (% inhibition)
14 | O=C(N[C@H](CN1CCCCC1)[C@H](O)c1ccc(OC2CC2)c(Cl)c1)[C@@H]1CCN(c2ccc(Cl)cc2)C1 [Compound 66, (R)-N-((1R,2R)-1-(3-chloro-4-cyclopropoxyphenyl)-1-hydroxy-3-(piperidin-1-yl)propan-2-yl)-1-(4-chlorophenyl)pyrrolidine-3-carboxamide] | F (1-49% (or less than 50%))
15 | O=C(N[C@H](CN1CCCC1)[C@H](O)c1ccc(OC2CC2)c(Cl)c1)[C@H]1CCN(c2ccc3ccccc3c2)C1 [Compound 67C, (S)-N-((1R,2R)-1-(3-chloro-4-cyclopropoxyphenyl)-1-hydroxy-3-(pyrrolidin-1-yl)propan-2-yl)-1-(naphthalen-2-yl)pyrrolidine-3-carboxamide] | E (50-74% (or less than 75%))
16 | O=C(N[C@H](CN1CCCC1)[C@H](O)c1ccc(N2CCOCC2)c(Cl)c1)[C@@H]1CCN(c2ccc(Cl)cc2)C1 [Compound 74, (R)-N-((1R,2R)-1-(3-chloro-4-morpholinophenyl)-1-hydroxy-3-(pyrrolidin-1-yl)propan-2-yl)-1-(4-chlorophenyl)pyrrolidine-3-carboxamide] | D (75-100%)
17 | O=C(N[C@H](CN1CCCC1)[C@H](O)c1ccc(N2CCOCC2)c(Cl)c1)[C@H]1CCN(c2ccc(Cl)cc2)C1 [Compound 74C, (S)-N-((1R,2R)-1-(3-chloro-4-morpholinophenyl)-1-hydroxy-3-(pyrrolidin-1-yl)propan-2-yl)-1-(4-chlorophenyl)pyrrolidine-3-carboxamide] | NA (not active—a negative value was generated for % inhibition)

Second part, the compound after the results:

Row | Data Range (% inhibition) | Compound
18 | F (1-49% (or less than 50%)) | O=C(N[C@H](CN1CCCC1)[C@H](O)c1ccc(OC2CC2)c(F)c1)[C@H]1CCN(c2ccc(F)cc2)C1 [Compound 69A, (S)-N-((1R,2R)-1-(4-cyclopropoxy-3-fluorophenyl)-1-hydroxy-3-(pyrrolidin-1-yl)propan-2-yl)-1-(4-fluorophenyl)pyrrolidine-3-carboxamide]
19 | E (50-74% (or less than 75%)) | O=C(N[C@H](CN1CCCC1)[C@H](O)c1ccc2c(c1)OCCO2)[C@H]1CCN(c2ccc3ccccc3c2)C1 [Compound 70A, (S)-N-((1R,2R)-1-(2,3-dihydrobenzo[b][1,4]dioxin-6-yl)-1-hydroxy-3-(pyrrolidin-1-yl)propan-2-yl)-1-(naphthalen-2-yl)pyrrolidine-3-carboxamide]
20 | E (50-74% (or less than 75%)) | CC1(C)CCc2ccc(N3CCC(C(=O)N[C@H](CN4CCCC4)[C@H](O)c4ccc5c(c4)OCCO5)C3)cc2O1 (stereo partly drawn) [Compound 71E, N-((1R,2R)-1-(2,3-dihydrobenzo[b][1,4]dioxin-6-yl)-1-hydroxy-3-(pyrrolidin-1-yl)propan-2-yl)-1-(2,2-dimethylchroman-7-yl)pyrrolidine-3-carboxamide]
21 | F (1-49% (or less than 50%)) | CC1(C)CCc2ccc(N3CC[C@H](C(=O)N[C@H](CN4CCCC4)[C@H](O)c4ccc5c(c4)OCCO5)C3)cc2O1 [Compound 71F, (S)-N-((1R,2R)-1-(2,3-dihydrobenzo[b][1,4]dioxin-6-yl)-1-hydroxy-3-(pyrrolidin-1-yl)propan-2-yl)-1-(2,2-dimethylchroman-7-yl)pyrrolidine-3-carboxamide]
22 | D (75-100%) | O=C(N[C@H](CN1CCCC1)[C@H](O)c1ccc2c(c1)OCCO2)C1CCN(c2ccc3ccccc3n2)C1 (stereo partly drawn) [Compound 72A, N-((1R,2R)-1-(2,3-dihydrobenzo[b][1,4]dioxin-6-yl)-1-hydroxy-3-(pyrrolidin-1-yl)propan-2-yl)-1-(quinolin-2-yl)pyrrolidine-3-carboxamide]
23 | F (1-49% (or less than 50%)) | O=C(N[C@H](CN1CCCC1)[C@H](O)c1ccc2c(c1)OCCO2)[C@H]1CCN(c2ccc3ccccc3n2)C1 [Compound 72B, (S)-N-((1R,2R)-1-(2,3-dihydrobenzo[b][1,4]dioxin-6-yl)-1-hydroxy-3-(pyrrolidin-1-yl)propan-2-yl)-1-(quinolin-2-yl)pyrrolidine-3-carboxamide]
24 | D (75-100%) | O=C(N[C@H](CN1CCCC1)[C@H](O)c1ccc(OC2CC2)c(Cl)c1)[C@H]1CCN(c2cccc(Oc3ccccn3)c2)C1 [Compound 75E, (S)-N-((1R,2R)-1-(3-chloro-4-cyclopropoxyphenyl)-1-hydroxy-3-(pyrrolidin-1-yl)propan-2-yl)-1-(3-(pyridin-2-yloxy)phenyl)pyrrolidine-3-carboxamide]
